Here are results for 19 molecules from patent US20250243194A1, “ANTAGONIST OF ADENOSINE RECEPTORS” (AdoRx Therapeutics Limited, priority 2022, published 2025).

Test [1] addresses human Adenosine A1 receptor (Homo sapiens (Human), UniProt P30542). The experiment in a line: Adenosine receptor TR-FRET binding assay (A1). As to conditions: inhibition of binding of 100 nM CA200645; CHO cell membranes; Ki from IC50 by Cheng and Prusoff. Here is the method: (§1) All FRET binding experiments were conducted at room temperature in white 384-well plates, in assay binding buffer containing 1× LabMed (Cisbio, France), 100 μg/mL saponin, 1% DMSO and 0.02% pluronic acid. Binding of the fluorescently labelled Adenosine receptor antagonist XAC (CA200645, FRET acceptor) to terbium-labelled A1, A2a, A2b and A3 adenosine receptors (FRET donors) was detected by time-resolved FRET due to the close proximity of the donor and acceptor in a binding event. To investigate the ability of unlabelled test compounds to bind to Adenosine A1, A2a, A2b and A3 receptors, dose response curves were constructed that determined the ability of a range of concentrations to inhibit the binding of 30 nM CA200645 to the A2b receptor and 100 nM CA200645 to the A1, A2a, and A3 receptor.
(§2) Serial dilution (1:3 dilutions) of test compounds in neat DMSO and transfer of a 400 nL sample of test compound into the assay plate was carried out using the Mosquito (TTP Labtech, UK). The compound samples were incubated for 2 hours at room temperature with a fixed concentration of CA200645 defined for each receptor (see above) and CHO cell membranes containing the human Adenosine A1 (0.5 μg/well), A2a (0.3 μg/well), A2b (1 μg/well) or A3 (1 μg/well) receptor in 40 μL of assay buffer. Total and non-specific binding of CA200645 was determined in the absence and presence of 10 μM XAC, respectively. Following 2 hours incubation, the level of CA200645 binding was detected on a Pherastar FSX (BMG Labtech, Germany) using standard TR-FRET settings. The terbium donor was excited with three laser flashes at a wavelength of 337 nm, and donor and acceptor emission was detected at 620 nm and 665 nm wavelengths, respectively. FRET ratios were obtained by multiplying the acceptor/donor ratio value by 10,000. Specific binding was determined by subtracting the non-specific binding FRET ratio from the total binding FRET ratio. Compound IC50 curves were analysed using GraphPad Prism 7.0 (GraphPad, USA) and Ki affinity values were determined from the obtained IC50 values using the method of Cheng and Prusoff.
(Time-resolved FRET reads energy transfer from a long-lived donor to a nearby acceptor.)

In test [2] the target is human Adenosine A2a receptor (Homo sapiens (Human), UniProt P29274). As to the kind of experiment: Adenosine receptor TR-FRET binding assay (A2a). Conditions: inhibition of binding of 100 nM CA200645; CHO cell membranes; Ki from IC50 by Cheng and Prusoff. On the procedure:
as §1, §2

The target of test [3] is human Adenosine A2b receptor (Homo sapiens (Human), UniProt P29275). The experiment in a line: Adenosine receptor TR-FRET binding assay (A2b). As to conditions: inhibition of binding of 30 nM CA200645; CHO cell membranes; Ki from IC50 by Cheng and Prusoff. Here is the method:
as §1, §2

In test [4] the target is human Adenosine A3 receptor (Homo sapiens (Human), UniProt P0DMS8). The experiment in a line: Adenosine receptor TR-FRET binding assay (A3). As to conditions: inhibition of binding of 100 nM CA200645; CHO cell membranes; Ki from IC50 by Cheng and Prusoff. Here is the method:
as §1, §2

The subject of test [5] is CD8+ T cells in human whole blood. As to the kind of experiment: Measurement of pCREB in CD8+ T cells in human whole blood. In kind it is cell-based. Conditions: T-cell, 3 μM NECA, rolipram, FACS. On the procedure:
Heparinised human whole blood was pre-incubated at 37° C. with serial dilutions of A2a antagonists for 20 min. and the phosphodiesterase inhibitor rolipram to amplify the pCREB response. The adenosine receptor agonist NECA is then added at a final concentration of 3 μM and following a 60 min incubation the blood is fixed and red blood cells lysed. White blood cells are isolated, permeabilized and stained with directly conjugated fluorescent antibodies to phospho-CREB (Alexa Fluor 488) and CD8 (Alexa Fluor 647) and the level of phospho-CREB in CD8+ T cells is measured by FACS using a BD Accuri C6 Flow Cytometer.

Chain of human Adenosine A3 receptor (P0DMS8 whole entry): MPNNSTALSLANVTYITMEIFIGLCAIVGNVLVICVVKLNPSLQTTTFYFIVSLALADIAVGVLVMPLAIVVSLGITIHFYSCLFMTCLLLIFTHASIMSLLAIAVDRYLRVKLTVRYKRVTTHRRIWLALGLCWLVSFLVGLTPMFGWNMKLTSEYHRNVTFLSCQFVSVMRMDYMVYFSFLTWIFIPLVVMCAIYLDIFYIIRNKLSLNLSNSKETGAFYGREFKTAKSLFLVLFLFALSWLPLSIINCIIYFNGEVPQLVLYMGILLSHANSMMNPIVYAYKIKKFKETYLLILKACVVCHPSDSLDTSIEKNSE
Chain of human Adenosine A2a receptor (P29274 whole entry): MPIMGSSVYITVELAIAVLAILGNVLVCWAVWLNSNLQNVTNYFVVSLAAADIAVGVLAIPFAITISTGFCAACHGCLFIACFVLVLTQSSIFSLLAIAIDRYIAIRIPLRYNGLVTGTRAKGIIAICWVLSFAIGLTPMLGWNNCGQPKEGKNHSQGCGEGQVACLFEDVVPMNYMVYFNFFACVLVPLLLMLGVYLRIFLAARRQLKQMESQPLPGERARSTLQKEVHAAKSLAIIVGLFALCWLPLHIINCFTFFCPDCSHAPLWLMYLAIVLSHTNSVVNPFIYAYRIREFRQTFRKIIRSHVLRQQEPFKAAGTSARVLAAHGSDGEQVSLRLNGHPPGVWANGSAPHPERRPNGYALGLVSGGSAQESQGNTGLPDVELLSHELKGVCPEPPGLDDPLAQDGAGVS
Chain of human Adenosine A1 receptor (P30542 whole entry): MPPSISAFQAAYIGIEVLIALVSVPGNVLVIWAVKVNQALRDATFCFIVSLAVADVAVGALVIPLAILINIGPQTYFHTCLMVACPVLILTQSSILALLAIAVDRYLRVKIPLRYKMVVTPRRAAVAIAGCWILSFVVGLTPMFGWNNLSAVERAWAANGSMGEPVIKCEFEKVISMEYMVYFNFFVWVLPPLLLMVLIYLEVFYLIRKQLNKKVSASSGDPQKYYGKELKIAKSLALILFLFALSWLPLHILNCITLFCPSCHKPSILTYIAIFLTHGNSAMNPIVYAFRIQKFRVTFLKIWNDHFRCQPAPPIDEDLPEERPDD
Chain of human Adenosine A2b receptor (P29275 whole entry): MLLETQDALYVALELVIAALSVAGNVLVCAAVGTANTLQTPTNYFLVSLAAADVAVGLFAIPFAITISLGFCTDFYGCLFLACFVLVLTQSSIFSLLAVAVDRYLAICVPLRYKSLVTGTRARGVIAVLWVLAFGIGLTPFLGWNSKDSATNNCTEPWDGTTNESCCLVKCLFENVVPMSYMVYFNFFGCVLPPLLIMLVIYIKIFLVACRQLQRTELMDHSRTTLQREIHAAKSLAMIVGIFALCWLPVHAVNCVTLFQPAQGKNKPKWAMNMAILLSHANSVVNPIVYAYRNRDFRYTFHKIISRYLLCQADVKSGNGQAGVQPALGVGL

The Ki is the dissociation constant of the complex between target and ligand, obtained from inhibition or displacement. With `Cc1cc(-c2sc(NC(=O)N3CC4(COC4)C3)nc2-c2cccc(C#N)c2)cc2[nH]ncc12` [Example 2.2, N-[4-(3-Cyanophenyl)-5-(4-methyl-1H-indazol-6-yl)thiazol-2-yl]-2-oxa-6-azaspiro[3.3]heptane-6-carboxamide], the Ki in test [1] stood at 2 nM; in test [2], 2.69 nM; in test [3], 3.3 nM; in test [4], 820 nM.

Take `Cc1cc(-c2sc(NC(=O)N3CC4(COC4)C3)nc2-c2cccc(C#N)c2)cc2[nH]nnc12` [Example 2.3, N-[4-(3-Cyanophenyl)-5-(7-methyl-3H-benzotriazol-5-yl)thiazol-2-yl]-2-oxa-6-azaspiro[3.3]heptane-6-carboxamide]: the Ki turned out to be 1 nM in test [1], 1.37 nM in test [2], 1.7 nM in test [3] and 466 nM in test [4].

Regarding `N#Cc1cccc(-c2nc(NC(=O)N3CC4(COC4)C3)sc2-c2ccnc3[nH]ccc23)c1` [Example 2.4, N-[4-(3-Cyanophenyl)-5-(1H-pyrrolo[2,3-b]pyridin-4-yl)thiazol-2-yl]-2-oxa-6-azaspiro[3.3]heptane-6-carboxamide], the inhibition constant (Ki) in test [1] was 1 nM; in test [2], 1 nM; in test [3] it was 0.5 nM; in test [4] it was 290 nM.

`Cc1cc(-c2sc(NC(=O)N3CC4(COC4)C3)nc2-c2cccc(C#N)c2)c2cn[nH]c2n1` [Example 2.5, N-[4-(3-Cyanophenyl)-5-(6-methyl-1H-pyrazolo[3,4-b]pyridin-4-yl)thiazol-2-yl]-2-oxa-6-azaspiro[3.3]heptane-6-carboxamide]: the Ki turned out to be 14 nM in test [1], 3.3 nM in test [2], 0.9 nM in test [3] and 2600 nM in test [4].

What is called IC50 is the concentration that gives 50% inhibition. Lower therefore signals higher potency. `Cc1ncnc2ccc(-c3sc(NC(=O)N4CCC5(CC4)CNCCO5)nc3-c3cccc(C#N)c3)cc12` [Example 3.1, N-[4-(3-Cyanophenyl)-5-(4-methylquinazolin-6-yl)thiazol-2-yl]-1-oxa-4,9-diazaspiro[5.5]undecane-9-carboxamide]: the Ki is 48 nM in test [1], 0.15 nM in test [2] and 1.3 nM in test [3]. In addition, the IC50 in test [5] came out at 10 nM.

`Cc1ncnc2ccc(-c3sc(NC(=O)N4CCC5(CNCCO5)C4)nc3-c3cccc(C#N)c3)cc12` (stereo not shown) [Example 4, N-[4-(3-Cyanophenyl)-5-(4-methylquinazolin-6-yl)thiazol-2-yl]-6-oxa-2,9-diazaspiro[4.5]decane-2-carboxamide]: the Ki came to 27 nM in test [1], 0.19 nM in test [2] and 1.9 nM in test [3]. The same molecule showed an IC50 in test [5] of 10 nM.

Regarding `Cc1ncnc2ccc(-c3sc(NC(=O)N4CC[C@@](C)(C#N)C4)nc3-c3cccc(C#N)c3)cc12` [Example 7.1, (3R)-3-Cyano-N-[4-(3-cyanophenyl)-5-(4-methylquinazolin-6-yl)thiazol-2-yl]-3-methyl-pyrrolidine-1-carboxamide], the Ki in test [1] was 121 nM; in test [2] it was 36.9 nM; in test [3] it was 0.9 nM; in test [4] it was 828 nM.

Take `Cc1ncnc2ccc(-c3sc(NC(=O)N4CCN(CCO)CC4)nc3-c3cccc(C#N)c3)cc12` [Example 7.27, N-[4-(3-Cyanophenyl)-5-(4-methylquinazolin-6-yl)thiazol-2-yl]-4-(2-hydroxyethyl)piperazine-1-carboxamide]: the Ki was 27 nM in test [1], 0.48 nM in test [2] and 3.1 nM in test [3].

Take `Cc1ncnc2ccc(-c3sc(NC(=O)N4CC5(COC5)C4)nc3-c3cccc(C#N)c3)cc12` [Example 7.29, N-[4-(3-Cyanophenyl)-5-(4-methylquinazolin-6-yl)thiazol-2-yl]-2-oxa-6-azaspiro[3.3]heptane-6-carboxamide]: the Ki in test [1] amounted to 3 nM; in test [2], 0.09 nM; in test [3], 0.5 nM. Moreover, in test [5], the IC50 was 5 nM.

On to `Cc1nc(C)c2cc(-c3sc(NC(=O)N4CC5(COC5)C4)nc3-c3cccc(C#N)c3)ccc2n1` [Example 9, N-[4-(3-Cyanophenyl)-5-(2,4-dimethylquinazolin-6-yl)thiazol-2-yl]-2-oxa-6-azaspiro[3.3]heptane-6-carboxamide], for which the Ki in test [1] came to 70 nM; in test [2] it was 5.45 nM; in test [3], 6 nM.

For `N#Cc1cccc(-c2nc(NC(=O)N3CC4(COC4)C3)sc2-c2ccc3ncncc3c2)c1` [Example 10, N-[4-(3-Cyanophenyl)-5-quinazolin-6-yl-thiazol-2-yl]-2-oxa-6-azaspiro[3.3]heptane-6-carboxamide], the Ki in test [1] was 7 nM; in test [2], 0.85 nM; in test [3], 4.7 nM.

As for `CCc1ncnc2ccc(-c3sc(NC(=O)N4CC5(COC5)C4)nc3-c3cccc(C#N)c3)cc12` [Example 13, N-[4-(3-Cyanophenyl)-5-(4-ethylquinazolin-6-yl)thiazol-2-yl]-2-oxa-6-azaspiro[3.3]heptane-6-carboxamide], the values for the Ki in test [1], in test [2] and in test [3] were 2 nM, 0.16 nM and 1.7 nM, respectively.

In the case of `Cc1nc(C)c(-c2sc(NC(=O)N3CCC(C)(C#N)CC3)nc2-c2cccc(C#N)c2)o1` [Example 14, 4-Cyano-N-[4-(3-cyanophenyl)-5-(2,4-dimethyloxazol-5-yl)thiazol-2-yl]-4-methyl-piperidine-1-carboxamide], the Ki in test [1] was determined as 12 nM; in test [2] it was 0.42 nM; in test [3], 2.8 nM.

Turning to `Cc1nc(C)c(-c2sc(NC(=O)N3CC4(COC4)C3)nc2-c2cccc(C#N)c2)o1` [Example 15, N-[4-(3-Cyanophenyl)-5-(2,4-dimethyloxazol-5-yl)thiazol-2-yl]-2-oxa-6-azaspiro[3.3]heptane-6-carboxamide], the Ki in test [1] was determined as 14 nM; in test [2], 1.74 nM; in test [3], 6.2 nM.

For `N#Cc1cccc(-c2nc(NC(=O)N3CC4(COC4)C3)sc2-c2c[nH]c3ncccc23)c1` [Example 17, N-[4-(3-Cyanophenyl)-5-(1H-pyrrolo[2,3-b]pyridin-3-yl)thiazol-2-yl]-2-oxa-6-azaspiro[3.3]heptane-6-carboxamide], the Ki in test [1] was 1 nM; in test [2], 3.11 nM; in test [3] it was 0.8 nM; in test [4], 305 nM.

As for `Cc1cc(-c2sc(NC(=O)N3CCC(C)(C#N)CC3)nc2-c2cccc(C#N)c2)c2[nH]ncc2n1` [Example 19, 4-Cyano-N-[4-(3-cyanophenyl)-5-(5-methyl-1H-pyrazolo[4,3-b]pyridin-7-yl)thiazol-2-yl]-4-methyl-piperidine-1-carboxamide], the Ki amounted to 240 nM in test [1], 2 nM in test [2] and 1.8 nM in test [3]. The same molecule displayed an IC50 in test [5] of 216 nM.

With `Cc1cc(-c2sc(NC(=O)N3CC4(COC4)C3)nc2-c2cccc(C#N)c2)c2ccn(C)c2n1` [Example 24, N-[4-(3-Cyanophenyl)-5-(1,6-dimethylpyrrolo[2,3-b]pyridin-4-yl)thiazol-2-yl]-2-oxa-6-azaspiro[3.3]heptane-6-carboxamide], the Ki is 245 nM in test [1], 10.5 nM in test [2] and 7.2 nM in test [3].

`Cc1cc(-c2sc(NC(=O)N3CC4(COC4)C3)nc2-c2cccc(C#N)c2)cn2ccnc12` [Example 29, N-[4-(3-Cyanophenyl)-5-(8-methylimidazo[1,2-a]pyridin-6-yl)thiazol-2-yl]-2-oxa-6-azaspiro[3.3]heptane-6-carboxamide]: the Ki in test [1] stood at 4 nM; in test [2], 1.88 nM; in test [3], 1.3 nM.

For the molecule `Cc1cc(-c2sc(NC(=O)N3CC4(COC4)C3)nc2-c2cccc(C#N)c2)cc2cnn(C)c12` [Example 30, N-[4-(3-Cyanophenyl)-5-(1,7-dimethylindazol-5-yl)thiazol-2-yl]-2-oxa-6-azaspiro[3.3]heptane-6-carboxamide], the Ki in test [1] came out at 14 nM; in test [2], 0.59 nM; in test [3], 13.2 nM.
